This passage reports inhibition, Ki and efflux ratio results from patent publication US10011596B2, “2-amino-3-fluoro-3-(fluoromethyl)-6-methyl-6-phenyl-3,4,5,6-tetrahydropyridines as BACE1 inhibitors” (H. Lundbeck A/S, priority 2015, dated 2018).

Data set [1] deals with T1, human BACE1 (Homo sapiens, UniProt P56817). The experiment in a line: BACE1 efficacy assay (FRET-based, commercial BACE1 kit). Format: biochemical. Also on record: purchased Life Technologies P2985. The conditions noted are these: test compound at 10 μM. As to the method:
The efficacy assay was performed as a FRET-based assay using a commercially available BACE1 kit (Life Technologies, P2985). 2 μl test compound at 10 μM (final concentration) and 15 μl BACE1 enzyme from the kit (final concentration 3 nM) were preincubated for 15 minutes at room temperature before addition of 15 μl of substrate from the kit (250 nM final concentration) and incubated for additional 90 minutes at room temperature. The assay plate was subsequently read in a Pherastar (Ex540/Em590).

Data set [2] addresses T1, human BACE1. The experiment in a line: BACE1 binding assay (SPA-based, radioligand displacement). On the set-up: biotin (biotinylated form); made in house; host or cells: Freestyle HEK293 cells. Particulars: pH 4.5, 10 nM radioligand, 6 nM human BACE1, read-out: BACE1 binding affinity. The protocol: The binding assay was performed as SPA-based assay using a biotinylated form of human BACE1 recombinantly expressed and subsequently purified from Freestyle HEK293 cells. The binding assay was run in a 50 mM sodium acetate buffer, pH 4.5 containing 50 mM NaCl and 0.03% Tween-20 in white clear bottom 384 plates (Corning #3653). 10 nM (final concentration) radioligand ([^3H]-N-((1S,2R)-1-benzyl-3-cyclopropylamino-2-hydroxy-propyl)-5-(methanesulfonyl-methyl-amino)-N-((R)-1-phenyl-ethyl)-isophthalamide) (TRQ11569 purchased from GE Healthcare) was mixed with test compound at a given concentration, 6 nM (final concentration) human BACE1 and 25 μg Streptavidin coated PVT core SPA beads (RPNQ0007, GE Healthcare Life Sciences) in a total volume of 40 μl. Several concentrations of each test compound were tested in the assay for IC50 determination. The plates were incubated for one hour at room temperature and counted in a WaIlac Trilux counter. […] For each test compound, a IC50 value (the concentration mediating 50% inhibition of the specific binding of the radioligand) was determined from concentration-response curve and used to calculate the Ki from the equation Ki=IC50/(1+L/Kd), where L and Kd are the final concentration of the radioligand used in the assay and the dissociation constant of the radioligand, respectively. The Kd of the radioligand was determined from saturation binding experiments.
For orientation: Loss of bound radioactivity is the signal in a displacement assay; it reports binding, not function.

The subject of data set [3] is P-gp (MDR1). The experiment in a line: MDCK-MDR1 assay (permeability, efflux ratio). The data set is classed as in vitro ADME. The conditions noted are these: dog. As to the method: The permeability of the test compounds was assessed in MDCK-MDR1 cells that were cultured to confluency (4-6 days) in a 96 transwell plate. Test compounds were diluted with the transport buffer (HBSS+1% BSA) to a concentration of 0.5 μM and applied to the apical or basolateral side of the cell monolayer. Permeation of the test compounds from A to B direction or B to A direction was determined in triplicate over a 60-minute incubation time at 37° C. and 5% CO2 with a relative humidity of 95%. Test compounds were quantified by LC-MS/MS analysis based on the peaks area ratios of analyte/IS in both the receiver and donor wells of the transwell plate.
The apparent permeability coefficient Papp (cm/s) was calculated using the equation: Papp=(dCr/dt)×Vr/(A×C0)
Where dCr/dt is the cumulative concentration of compound in the receiver chamber as a function of time (μM/s); Vr is the solution volume in the receiver chamber (0.05 mL on the apical side; 0.25 mL on the basolateral side); A is the surface area for the transport, i.e. 0.0804 cm^2 for the area of the monolayer; C0 is the initial concentration in the donor chamber (μM).

pKi: −log10 of the molar value.

T1 sequence (P56817 46-501): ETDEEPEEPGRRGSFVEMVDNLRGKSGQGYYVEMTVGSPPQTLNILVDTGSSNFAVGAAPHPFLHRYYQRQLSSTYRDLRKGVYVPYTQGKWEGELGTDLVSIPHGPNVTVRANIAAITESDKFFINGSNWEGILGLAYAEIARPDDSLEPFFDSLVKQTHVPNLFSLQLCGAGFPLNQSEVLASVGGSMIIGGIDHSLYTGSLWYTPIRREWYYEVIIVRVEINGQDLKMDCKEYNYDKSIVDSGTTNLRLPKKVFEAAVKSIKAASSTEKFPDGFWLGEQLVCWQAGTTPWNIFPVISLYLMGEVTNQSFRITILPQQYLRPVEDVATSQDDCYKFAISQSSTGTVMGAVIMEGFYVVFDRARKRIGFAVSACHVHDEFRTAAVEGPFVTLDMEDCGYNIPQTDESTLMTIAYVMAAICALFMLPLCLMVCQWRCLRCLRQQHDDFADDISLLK

For `Cn1cc(Br)nc1C(=O)Nc1ccc(F)c([C@]2(C)CC[C@@](F)(CF)C(N)=N2)c1` [Compound 7, N-(3-((2S,5S)-6-Amino-5-fluoro-5-(fluoromethyl)-2-methyl-2,3,4,5-tetrahydropyridin-2-yl)-4-fluorophenyl)-4-bromo-1-methyl-1H-imidazole-2-carboxamide], in data set [1], the inhibition at 10 µM turned out to be 104%. Besides, the pKi in data set [2] was 7.17.

As for `COc1cnc(C(=O)Nc2ccc(F)c([C@]3(CF)CC[C@@](F)(CF)C(N)=N3)c2)cn1` [Compound 23, N-[3-[(2S,5S)-6-amino-5-fluoro-2,5-bis(fluoromethyl)-2,3,4,5-tetrahydropyridin-2-yl]-4-fluoro-phenyl]-5-methoxy-pyrazine-2-carboxamide], in data set [3], the efflux ratio at 60 min, 0.5 µM was determined as 1.06. Moreover, in data set [2], the pKi is 7.77.

Consider `Cc1nc(C(=O)Nc2ccc(F)c([C@]3(C)CC[C@@](F)(CF)C(N)=N3)c2)co1` [Compound 6], for which the efflux ratio at 60 min, 0.5 µM in data set [3] came to 7. Besides, the inhibition at 10 µM in data set [1] was found to be 106%. Besides, in data set [2], the pKi is 7.34.

`C[C@@]1(c2cc(NC(=O)c3coc(C(F)F)n3)ccc2F)CC[C@@](F)(CF)C(N)=N1` [Compound 9]: the efflux ratio at 60 min, 0.5 µM in data set [3] stood at 8.61. In addition, the inhibition at 10 µM in data set [1] amounted to 103%. Moreover, the pKi in data set [2] was 7.59.

With `COc1ccc(C(=O)Nc2ccc(F)c([C@]3(C)CC[C@](F)(CF)C(N)=N3)c2)nc1` [Compound 14, N-(3-((2S,5R)-6-Amino-5-fluoro-5-(fluoromethyl)-2-methyl-2,3,4,5-tetrahydropyridin-2-yl)-4-fluorophenyl)-5-methoxypicolinamide], the efflux ratio at 60 min, 0.5 µM in data set [3] amounted to 1.06. Further, the inhibition at 10 µM in data set [1] came to 103%. Moreover, in data set [2], the pKi is 6.89.

Regarding `NC1=N[C@](CF)(c2cc(NC(=O)c3ccc(F)cn3)ccc2F)CC[C@@]1(F)CF` [Compound 21, N-[3-[(2S,5S)-6-amino-5-fluoro-2,5-bis(fluoromethyl)-2,3,4,5-tetrahydropyridin-2-yl]-4-fluoro-phenyl]-5-fluoro-pyridine-2-carboxamide], in data set [3], the efflux ratio at 60 min, 0.5 µM is 0.97. Further, the pKi in data set [2] was 7.17.

As to `NC1=N[C@](CF)(c2cc(NC(=O)c3ccc(F)cn3)ccc2F)CC[C@]1(F)CF` [Compound 24, N-[3-[(2S,5R)-6-amino-5-fluoro-2,5-bis(fluoromethyl)-2,3,4,5-tetrahydropyridin-2-yl]-4-fluoro-phenyl]-5-fluoro-pyridine-2-carboxamide], the efflux ratio at 60 min, 0.5 µM in data set [3] came out at 0.88. In data set [2], the pKi is 6.74.

Consider `C[C@@]1(c2cc(NC(=O)c3ccc(Cl)cc3)ccc2F)CC[C@@](F)(CF)C(N)=N1` [Compound 12, N-(3-((2S,5S)-6-Amino-5-fluoro-5-(fluoromethyl)-2-methyl-2,3,4,5-tetrahydropyridin-2-yl)-4-fluorophenyl)-4-chlorobenzamide], for which the inhibition at 10 µM in data set [1] stood at 103%. Further, the pKi in data set [2] is 6.85.

Regarding `COc1cnc(C(=O)Nc2ccc(F)c([C@]3(CF)CC[C@](F)(CF)C(N)=N3)c2)cn1` [Compound 26, N-[3-[(2S,5R)-6-amino-5-fluoro-2,5-bis(fluoromethyl)-2,3,4,5-tetrahydropyridin-2-yl]-4-fluoro-phenyl]-5-methoxy-pyrazine-2-carboxamide], in data set [3], the efflux ratio at 60 min, 0.5 µM turned out to be 0.92. The pKi in data set [2] is 6.80.

Turning to `COc1ccc(C(=O)Nc2cc(F)c(F)c([C@]3(C)CC[C@](F)(CF)C(N)=N3)c2)nc1` [Compound 19, N-[3-[(2S,5R)-6-Amino-5-fluoro-5-(fluoromethyl)-2-methyl-2,3,4,5-tetrahydropyridin-2-yl]-4,5-difluoro-phenyl]-5-methoxy-pyridine-2-carboxamide], the inhibition at 10 µM in data set [1] is 104%.

Turning to `C[C@@]1(c2cc(NC(=O)c3ccn(C(F)F)n3)ccc2F)CC[C@@](F)(CF)C(N)=N1` [Compound 10], the efflux ratio at 60 min, 0.5 µM in data set [3] is 10.6. For the same compound, the inhibition at 10 µM in data set [1] was determined as 103%. For the same compound, in data set [2], the pKi was 7.66.

With `Cc1cc(C#N)cnc1C(=O)Nc1ccc(F)c([C@]2(C)CC[C@@](F)(CF)C(N)=N2)c1` [Compound 3, N-(3-((2S,5S)-6-Amino-5-fluoro-5-(fluoromethyl)-2-methyl-2,3,4,5-tetrahydropyridin-2-yl)-4-fluorophenyl)-5-cyano-3-methylpicolinamide], the efflux ratio at 60 min, 0.5 µM in data set [3] was determined as 4.87. Moreover, in data set [1], the inhibition at 10 µM came out at 105%. In addition, in data set [2], the pKi is 8.00.

Take `Cc1csc(C(=O)Nc2ccc(F)c([C@]3(C)CC[C@@](F)(CF)C(N)=N3)c2)n1` [Compound 8, N-(3-((2S,5S)-6-Amino-5-fluoro-5-(fluoromethyl)-2-methyl-2,3,4,5-tetrahydropyridin-2-yl)-4-fluorophenyl)-4-methylthiazole-2-carboxamide]: the efflux ratio at 60 min, 0.5 µM in data set [3] was determined as 2.36. Moreover, the pKi in data set [2] is 7.21.

Turning to `C[C@@]1(c2cc(NC(=O)c3ccc(F)cn3)cc(F)c2F)CC[C@](F)(CF)C(N)=N1` [Compound 18, N-[3-[(2S,5R)-6-Amino-5-fluoro-5-(fluoromethyl)-2-methyl-2,3,4,5-tetrahydropyridin-2-yl]-4,5-difluoro-phenyl]-5-fluoro-pyridine-2-carboxamide], the inhibition at 10 µM in data set [1] turned out to be 103%. In data set [2], the pKi was 6.52.

Take `COc1ccc(C(=O)Nc2ccc(F)c([C@]3(C)CC[C@@](F)(CF)C(N)=N3)c2)nc1` [Compound 1, N-(3-((2S,5S)-6-Amino-5-fluoro-5-(fluoromethyl)-2-methyl-2,3,4,5-tetrahydropyridin-2-yl)-4-fluorophenyl)-5-methoxypicolinamide]: in data set [3], the efflux ratio at 60 min, 0.5 µM is 0.89. The inhibition at 10 µM in data set [1] came to 106%. Besides, the pKi in data set [2] was 7.66.

For `C[C@@]1(c2cc(NC(=O)c3ccc(F)cn3)cc(F)c2F)CC[C@@](F)(CF)C(N)=N1` [Compound 15, N-[3-[(2S,5S)-6-Amino-5-fluoro-5-(fluoromethyl)-2-methyl-2,3,4,5-tetrahydropyridin-2-yl]-4,5-difluoro-phenyl]-5-fluoro-pyridine-2-carboxamide], the efflux ratio at 60 min, 0.5 µM in data set [3] was determined as 1.17. Further, the inhibition at 10 µM in data set [1] worked out at 104%. In data set [2], the pKi was 7.28.

`COc1ccc(C(=O)Nc2cc(F)c(F)c([C@]3(C)CC[C@@](F)(CF)C(N)=N3)c2)nc1` [Compound 16, N-[3-[(2S,5S)-6-Amino-5-fluoro-5-(fluoromethyl)-2-methyl-2,3,4,5-tetrahydropyridin-2-yl]-4,5-difluoro-phenyl]-5-methoxy-pyridine-2-carboxamide]: the inhibition at 10 µM in data set [1] is 104%.

Regarding `[2H]C([2H])([2H])Oc1ccc(C(=O)Nc2ccc(F)c([C@]3(C)CC[C@@](F)(CF)C(N)=N3)c2)nc1` [Compound 2, N-(3-((2S,5S)-6-Amino-5-fluoro-5-(fluoromethyl)-2-methyl-2,3,4,5-tetrahydropyridin-2-yl)-4-fluorophenyl)-5-(methoxy-d3)picolinamide], in data set [3], the efflux ratio at 60 min, 0.5 µM amounted to 2.32. The inhibition at 10 µM in data set [1] is 104%. For the same compound, in data set [2], the pKi is 7.70.

Turning to `C[C@@]1(c2cc(NC(=O)c3ccc(Cl)cn3)ccc2F)CC[C@@](F)(CF)C(N)=N1` [Compound 4, N-(3-((2S,5S)-6-Amino-5-fluoro-5-(fluoromethyl)-2-methyl-2,3,4,5-tetrahydropyridin-2-yl)-4-fluorophenyl)-5-chloropicolinamide], in data set [3], the efflux ratio at 60 min, 0.5 µM came out at 1.34. Besides, the inhibition at 10 µM in data set [1] is 102%. Besides, in data set [2], the pKi was 7.96.

Turning to `COc1cnc(C(=O)Nc2cc(F)c(F)c([C@]3(C)CC[C@](F)(CF)C(N)=N3)c2)cn1` [Compound 20, N-[3-[(2S,5R)-6-Amino-5-fluoro-5-(fluoromethyl)-2-methyl-2,3,4,5-tetrahydropyridin-2-yl]-4,5-difluoro-phenyl]-5-methoxy-pyrazine-2-carboxamide], in data set [3], the efflux ratio at 60 min, 0.5 µM stood at 0.77. Moreover, in data set [1], the inhibition at 10 µM is 102%. In addition, in data set [2], the pKi was 6.64.

As usually defined, the inhibition is the change of the read-out against control, counted positive when it falls. What is called efflux ratio is a quotient of directional permeabilities that is used to spot active efflux.
